In ChEMBL document CHEMBL3885881, “DrugMatrix”:

Organism: Rattus norvegicus
Assay: DrugMatrix - Regimen: Daily Repeat
Assay type: toxicity, organism-based, Sprague-Dawley
Parameters: regimen Daily Repeat, gender Male, age 6-8 weeks
Details: in vivo, po, route oral GAVAGE, vehicle .5 % CMC; for BASOPHIL / EOSINOPHIL / ERYTHROCYTE COUNT / HEMATOCRIT / HEMOGLOBIN / LEUKOCYTE COUNT / LYMPHOCYTE / MEAN CORPUSCULAR HEMOGLOBIN / MEAN CORPUSCULAR HEMOGLOBIN CONCENTRATION / MEAN CORPUSCULAR VOLUME / MONOCYTE / NEUTROPHIL / PLATELET COUNT: tissue Blood; for ALANINE AMINOTRANSFERASE / ALBUMIN / ALKALINE PHOSPHATASE / ASPARTATE AMINOTRANSFERASE / BLOOD UREA NITROGEN / CHLORIDE / CHOLESTEROL / CREATINE PHOSPHOKINASE / CREATININE / GLUCOSE / PHOSPHORUS / POTASSIUM / SODIUM / TOTAL BILIRUBIN / TOTAL PROTEIN: tissue Plasma
[1] = 0 mg/kg, 72 h, dose level Control, time 3 day
[2] = 0 mg/kg, 120 h, dose level Control, time 5 day
[3] = 25 mg/kg, 72 h, dose level Low, time 3 day
[4] = 25 mg/kg, 120 h, dose level Low, time 5 day

C=C(CC)C(=O)c1ccc(OCC(=O)O)c(Cl)c1Cl [ETHACRYNIC ACID]
BASOPHIL [1]: 0% | EOSINOPHIL [1]: 0% | ERYTHROCYTE COUNT [1]: 6.19 x10E6/uL | HEMATOCRIT [1]: 36.94% | HEMOGLOBIN [1]: 14.58 G/DL | LEUKOCYTE COUNT [1]: 11.54 x10E3/uL | LYMPHOCYTE [1]: 84.8% | MEAN CORPUSCULAR HEMOGLOBIN [1]: 23.58 pg | MEAN CORPUSCULAR HEMOGLOBIN CONCENTRATION [1]: 39.44 G/DL | MEAN CORPUSCULAR VOLUME [1]: 59.76 fL | MONOCYTE [1]: 1.4% | NEUTROPHIL [1]: 13.8% | PLATELET COUNT [1]: 1068.8 x10E3/uL | ALANINE AMINOTRANSFERASE [1]: 38.17 u/L | ALBUMIN [1]: 3.88 G/DL | ALKALINE PHOSPHATASE [1]: 391.33 u/L | ASPARTATE AMINOTRANSFERASE [1]: 69.83 u/L | BLOOD UREA NITROGEN [1]: 15 mg/dL | CHLORIDE [1]: 104.17 MEQ/L | CHOLESTEROL [1]: 72.17 mg/dL | CREATINE PHOSPHOKINASE [1]: 174.33 u/L | CREATININE [1]: 0.58 mg/dL | GLUCOSE [1]: 192.67 mg/dL | PHOSPHORUS [1]: 10.52 mg/dL | POTASSIUM [1]: 6.8 MEQ/L | SODIUM [1]: 149.67 MEQ/L | TOTAL BILIRUBIN [1]: 0.78 mg/dL | TOTAL PROTEIN [1]: 6.28 G/DL | BASOPHIL [2]: 0% | EOSINOPHIL [2]: 0.17% | ERYTHROCYTE COUNT [2]: 6.72 x10E6/uL | HEMATOCRIT [2]: 40.02% | HEMOGLOBIN [2]: 15.83 G/DL | LEUKOCYTE COUNT [2]: 9.5 x10E3/uL | LYMPHOCYTE [2]: 87.17% | MEAN CORPUSCULAR HEMOGLOBIN [2]: 23.57 pg | MEAN CORPUSCULAR HEMOGLOBIN CONCENTRATION [2]: 39.62 G/DL | MEAN CORPUSCULAR VOLUME [2]: 59.55 fL | MONOCYTE [2]: 1.67% | NEUTROPHIL [2]: 11% | PLATELET COUNT [2]: 1053.67 x10E3/uL | ALANINE AMINOTRANSFERASE [2]: 26.33 u/L | ALBUMIN [2]: 4.02 G/DL | ALKALINE PHOSPHATASE [2]: 316.67 u/L | ASPARTATE AMINOTRANSFERASE [2]: 61.33 u/L | BLOOD UREA NITROGEN [2]: 18.67 mg/dL | CHLORIDE [2]: 108 MEQ/L | CHOLESTEROL [2]: 65.17 mg/dL | CREATINE PHOSPHOKINASE [2]: 161.17 u/L | CREATININE [2]: 0.75 mg/dL | GLUCOSE [2]: 177.33 mg/dL | PHOSPHORUS [2]: 9.72 mg/dL | POTASSIUM [2]: 6.18 MEQ/L | SODIUM [2]: 150.5 MEQ/L | TOTAL BILIRUBIN [2]: 0.68 mg/dL | TOTAL PROTEIN [2]: 6.55 G/DL | BASOPHIL [3]: 0% | EOSINOPHIL [3]: 0% | ERYTHROCYTE COUNT [3]: 5.63 x10E6/uL | HEMATOCRIT [3]: 33.93% | HEMOGLOBIN [3]: 13.5 G/DL | LEUKOCYTE COUNT [3]: 12.83 x10E3/uL | LYMPHOCYTE [3]: 81% | MEAN CORPUSCULAR HEMOGLOBIN [3]: 23.97 pg | MEAN CORPUSCULAR HEMOGLOBIN CONCENTRATION [3]: 39.8 G/DL | MEAN CORPUSCULAR VOLUME [3]: 60.23 fL | MONOCYTE [3]: 2.67% | NEUTROPHIL [3]: 16.33% | PLATELET COUNT [3]: 1220 x10E3/uL | ALANINE AMINOTRANSFERASE [3]: 34.67 u/L | ALBUMIN [3]: 3.8 G/DL | ALKALINE PHOSPHATASE [3]: 289.67 u/L | ASPARTATE AMINOTRANSFERASE [3]: 61.67 u/L | BLOOD UREA NITROGEN [3]: 16.33 mg/dL | CHLORIDE [3]: 102.67 MEQ/L | CHOLESTEROL [3]: 78 mg/dL | CREATINE PHOSPHOKINASE [3]: 150.67 u/L | CREATININE [3]: 0.67 mg/dL | GLUCOSE [3]: 178 mg/dL | PHOSPHORUS [3]: 11.3 mg/dL | POTASSIUM [3]: 6.67 MEQ/L | SODIUM [3]: 148 MEQ/L | TOTAL BILIRUBIN [3]: 0.5 mg/dL | TOTAL PROTEIN [3]: 6.23 G/DL | BASOPHIL [4]: 0% | EOSINOPHIL [4]: 0% | ERYTHROCYTE COUNT [4]: 6.67 x10E6/uL | HEMATOCRIT [4]: 39.93% | HEMOGLOBIN [4]: 15.7 G/DL | LEUKOCYTE COUNT [4]: 13.37 x10E3/uL | LYMPHOCYTE [4]: 91.33% | MEAN CORPUSCULAR HEMOGLOBIN [4]: 23.6 pg | MEAN CORPUSCULAR HEMOGLOBIN CONCENTRATION [4]: 39.37 G/DL | MEAN CORPUSCULAR VOLUME [4]: 59.9 fL | MONOCYTE [4]: 2.33% | NEUTROPHIL [4]: 6.33% | PLATELET COUNT [4]: 1183.33 x10E3/uL | ALANINE AMINOTRANSFERASE [4]: 25 u/L | ALBUMIN [4]: 4.03 G/DL | ALKALINE PHOSPHATASE [4]: 323.33 u/L | ASPARTATE AMINOTRANSFERASE [4]: 56.67 u/L | BLOOD UREA NITROGEN [4]: 14.33 mg/dL | CHLORIDE [4]: 104.33 MEQ/L | CHOLESTEROL [4]: 77.33 mg/dL | CREATINE PHOSPHOKINASE [4]: 160 u/L | CREATININE [4]: 0.6 mg/dL | GLUCOSE [4]: 169 mg/dL | PHOSPHORUS [4]: 10.6 mg/dL | POTASSIUM [4]: 6.23 MEQ/L | SODIUM [4]: 151 MEQ/L | TOTAL BILIRUBIN [4]: 0.6 mg/dL | TOTAL PROTEIN [4]: 6.77 G/DL
